# Assay results reported in the supplement of paper PMC10307832.
# How the values were obtained:
# Experiment in all cases: relative viability (nuclei count vs DMSO), 5 days (fraction); higher = more cells survive
# NCI-H1651 = system: NCI-H1651
# How it was run: (§1)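 Relative viability was taken as the ratio of nuclei in treated wells to nuclei in vehicle wells. Lung cancer cell lines in 1536-well plates received compounds by pin tool one day after seeding, either one drug alone or a fixed anchor-drug dose plus five library-drug doses (not always all listed) in √10 steps. Nuclei were counted on 4× images after 5 days of treatment, and values are medians of duplicate plates.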
# NCI-H1437 = system: NCI-H1437
# How it was run: as §1
# NCI-H358 = system: NCI-H358
# How it was run: as §1
# BEN = system: BEN
# How it was run: as §1
# SK-LU-1 = system: SK-LU-1
# How it was run: as §1
# HCC-366 = system: HCC-366
# How it was run: as §1
# NCI-H1734 = system: NCI-H1734
# How it was run: as §1
# COR-L23 = system: COR-L23
# How it was run: as §1
# LU99A = system: LU99A
# How it was run: as §1
# NCI-H460 = system: NCI-H460
# How it was run: as §1
# LOU-NH91 = system: LOU-NH91
# How it was run: as §1
# NCI-H441 = system: NCI-H441
# How it was run: as §1
# NCI-H2023 = system: NCI-H2023
# How it was run: as §1
# NCI-H1355 = system: NCI-H1355
# How it was run: as §1
# NCI-H1975 = system: NCI-H1975
# How it was run: as §1
# NCI-H1650 = system: NCI-H1650
# How it was run: as §1
# NCI-H2085 = system: NCI-H2085
# How it was run: as §1
# NCI-H1793 = system: NCI-H1793
# How it was run: as §1
# NCI-H838 = system: NCI-H838
# How it was run: as §1
# NCI-H2342 = system: NCI-H2342
# How it was run: as §1
structure (smiles),measurement,setting,value
Cc1sc2c(c1C)C(c1ccc(Cl)cc1)=N[C@@H](CC(=O)OC(C)(C)C)c1nnc(C)n1-2 [JQ1] + Nc1ncn([C@H]2C[C@H](O)[C@@H](CO)O2)c(=O)n1 [Decitabine] (partner 2 µM),relative viability,NCI-H1651; first compound 0.04 µM,0.651
same,relative viability,NCI-H1651; first compound 0.1265 µM,0.487
same,relative viability,NCI-H1651; first compound 0.4 µM,0.442
same,relative viability,NCI-H1651; first compound 1.265 µM,0.524
same,relative viability,NCI-H1651; first compound 4 µM,0.411
same,relative viability,NCI-H1437; first compound 0.04 µM,0.544
same,relative viability,NCI-H1437; first compound 0.1265 µM,0.577
same,relative viability,NCI-H1437; first compound 0.4 µM,0.55
same,relative viability,NCI-H1437; first compound 1.265 µM,0.486
same,relative viability,NCI-H1437; first compound 4 µM,0.37
same,relative viability,NCI-H358; first compound 0.04 µM,0.212
same,relative viability,NCI-H358; first compound 0.1265 µM,0.227
same,relative viability,NCI-H358; first compound 0.4 µM,0.235
same,relative viability,NCI-H358; first compound 1.265 µM,0.188
same,relative viability,NCI-H358; first compound 4 µM,0.206
same,relative viability,BEN; first compound 0.04 µM,0.712
same,relative viability,BEN; first compound 0.1265 µM,0.578
same,relative viability,BEN; first compound 0.4 µM,0.63
same,relative viability,BEN; first compound 1.265 µM,0.511
same,relative viability,BEN; first compound 4 µM,0.38
same,relative viability,SK-LU-1; first compound 0.04 µM,0.614
same,relative viability,SK-LU-1; first compound 0.1265 µM,0.519
same,relative viability,SK-LU-1; first compound 0.4 µM,0.416
same,relative viability,SK-LU-1; first compound 1.265 µM,0.308
same,relative viability,SK-LU-1; first compound 4 µM,0.213
same,relative viability,HCC-366; first compound 0.04 µM,0.309
same,relative viability,HCC-366; first compound 0.4 µM,0.35
same,relative viability,HCC-366; first compound 1.265 µM,0.36
same,relative viability,HCC-366; first compound 4 µM,0.293
same,relative viability,NCI-H1734; first compound 0.04 µM,0.492
same,relative viability,NCI-H1734; first compound 0.1265 µM,0.549
same,relative viability,NCI-H1734; first compound 0.4 µM,0.523
same,relative viability,NCI-H1734; first compound 1.265 µM,0.408
same,relative viability,NCI-H1734; first compound 4 µM,0.364
same,relative viability,COR-L23; first compound 0.04 µM,0.421
same,relative viability,COR-L23; first compound 0.1265 µM,0.351
same,relative viability,COR-L23; first compound 0.4 µM,0.387
same,relative viability,COR-L23; first compound 1.265 µM,0.272
same,relative viability,COR-L23; first compound 4 µM,0.332
same,relative viability,LU99A; first compound 0.04 µM,0.932
same,relative viability,LU99A; first compound 0.4 µM,0.623
same,relative viability,LU99A; first compound 1.265 µM,0.293
same,relative viability,LU99A; first compound 4 µM,0.254
same,relative viability,NCI-H460; first compound 0.04 µM,0.488
same,relative viability,NCI-H460; first compound 0.1265 µM,0.344
same,relative viability,NCI-H460; first compound 0.4 µM,0.296
same,relative viability,NCI-H460; first compound 1.265 µM,0.165
same,relative viability,NCI-H460; first compound 4 µM,0.226
same,relative viability,LOU-NH91; first compound 0.04 µM,0.826
same,relative viability,LOU-NH91; first compound 0.1265 µM,0.725
same,relative viability,LOU-NH91; first compound 0.4 µM,0.554
same,relative viability,LOU-NH91; first compound 1.265 µM,0.491
same,relative viability,LOU-NH91; first compound 4 µM,0.521
same,relative viability,NCI-H441; first compound 0.04 µM,0.257
same,relative viability,NCI-H441; first compound 0.1265 µM,0.266
same,relative viability,NCI-H441; first compound 0.4 µM,0.251
same,relative viability,NCI-H441; first compound 1.265 µM,0.152
same,relative viability,NCI-H441; first compound 4 µM,0.17
same,relative viability,NCI-H2023; first compound 0.04 µM,0.233
same,relative viability,NCI-H2023; first compound 0.1265 µM,0.228
same,relative viability,NCI-H2023; first compound 0.4 µM,0.198
same,relative viability,NCI-H2023; first compound 1.265 µM,0.14
same,relative viability,NCI-H2023; first compound 4 µM,0.13
same,relative viability,NCI-H1355; first compound 0.04 µM,0.348
same,relative viability,NCI-H1355; first compound 0.1265 µM,0.342
same,relative viability,NCI-H1355; first compound 0.4 µM,0.337
same,relative viability,NCI-H1355; first compound 1.265 µM,0.319
same,relative viability,NCI-H1355; first compound 4 µM,0.249
same,relative viability,NCI-H1975; first compound 0.04 µM,0.393
same,relative viability,NCI-H1975; first compound 0.1265 µM,0.282
same,relative viability,NCI-H1975; first compound 0.4 µM,0.331
same,relative viability,NCI-H1975; first compound 1.265 µM,0.261
same,relative viability,NCI-H1975; first compound 4 µM,0.232
same,relative viability,NCI-H1650; first compound 0.04 µM,0.442
same,relative viability,NCI-H1650; first compound 0.1265 µM,0.44
same,relative viability,NCI-H1650; first compound 0.4 µM,0.333
same,relative viability,NCI-H1650; first compound 1.265 µM,0.185
same,relative viability,NCI-H1650; first compound 4 µM,0.146
same,relative viability,NCI-H2085; first compound 0.04 µM,0.538
same,relative viability,NCI-H2085; first compound 0.1265 µM,0.595
same,relative viability,NCI-H2085; first compound 0.4 µM,0.509
same,relative viability,NCI-H2085; first compound 1.265 µM,0.454
same,relative viability,NCI-H2085; first compound 4 µM,0.473
same,relative viability,NCI-H1793; first compound 0.04 µM,0.557
same,relative viability,NCI-H1793; first compound 0.1265 µM,0.433
same,relative viability,NCI-H1793; first compound 0.4 µM,0.468
same,relative viability,NCI-H1793; first compound 1.265 µM,0.418
same,relative viability,NCI-H1793; first compound 4 µM,0.484
same,relative viability,NCI-H838; first compound 0.04 µM,0.458
same,relative viability,NCI-H838; first compound 0.1265 µM,0.371
same,relative viability,NCI-H838; first compound 0.4 µM,0.347
same,relative viability,NCI-H838; first compound 1.265 µM,0.282
same,relative viability,NCI-H838; first compound 4 µM,0.235
same,relative viability,NCI-H2342; first compound 0.04 µM,0.79
same,relative viability,NCI-H2342; first compound 0.1265 µM,0.636
same,relative viability,NCI-H2342; first compound 0.4 µM,0.737
same,relative viability,NCI-H2342; first compound 1.265 µM,0.76
same,relative viability,NCI-H2342; first compound 4 µM,0.665
